In one experiment the test system is Candida tropicalis. As to the kind of experiment: Antifungal activity against Candida tropicalis after 18 hr by agar well diffusion method. The format is functional, organism-based. For orientation: In agar diffusion tests the substance spreads into inoculated agar from a disc or well.
The test system of another experiment is Saccharomyces cerevisiae. As to the kind of experiment: Antifungal activity against Saccharomyces cerevisiae RSKK 251 after 18 hr by agar well diffusion method. The class given is functional, organism-based.
A further experiment concerns Candida albicans. Put plainly: Antifungal activity against Candida albicans ATCC 60193 after 18 hr by agar well diffusion method. The format is functional, organism-based.
For experiment [1], the system named is Mycolicibacterium smegmatis. Put plainly: Antibacterial activity against Mycobacterium smegmatis ATCC 607 after 18 hr by agar well diffusion method. As to IZ: test concentration or dose not given here. The class given is functional.
The subject of another experiment is Bacillus cereus. As to the kind of experiment: Antibacterial activity against Bacillus cereus 702 Roma after 18 hr by agar well diffusion method. As to IZ: test concentration or dose not given here. The class given is functional.
The subject of another experiment is Enterococcus faecalis. Put plainly: Antibacterial activity against Enterococcus faecalis ATCC 29212 after 18 hr by agar well diffusion method. The class given is functional.
For the next experiment, the system named is Staphylococcus aureus. As to the kind of experiment: Antibacterial activity against Staphylococcus aureus ATCC 25923 after 18 hr by agar well diffusion method. The format is functional.
For the next experiment, the system named is Pseudomonas aeruginosa. As to the kind of experiment: Antibacterial activity against Pseudomonas aeruginosa ATCC 43288 after 18 hr by agar well diffusion method. The format is functional.

Molecules are shown by their SMILES. Active and inactive are the calls of the source. The rule behind the calls is not given here.

As for `COc1ccc(/C=N/NC(=O)Cn2nc(Cc3ccc(Cl)cc3)n(CCc3c[nH]c4ccccc34)c2=O)cc1`, the result (with Candida tropicalis; with Saccharomyces cerevisiae; in the experiment with Candida albicans; in experiment [1]; with Bacillus cereus; with Enterococcus faecalis) was inactive. For the same compound, the result in the experiment on Staphylococcus aureus and in the experiment with Pseudomonas aeruginosa was inactive.
In the case of `Cc1ccc(Cc2nn(Cc3nnc(S)n3N)c(=O)n2CCc2c[nH]c3ccccc23)cc1`, the outcome in the experiment on Candida tropicalis, in the experiment on Saccharomyces cerevisiae, with Candida albicans, in the experiment on Enterococcus faecalis, in the experiment on Staphylococcus aureus and with Pseudomonas aeruginosa was inactive. Also, the results for the “inhibition zone (IZ)” value (in experiment [1]; in the experiment on Bacillus cereus) were 6 mm and 7 mm, respectively.
In the case of `COc1ccc(/C=N/NC(=O)Cn2nc(Cc3ccc(C)cc3)n(CCc3c[nH]c4ccccc34)c2=O)cc1`, the result (with Candida tropicalis; in the experiment with Saccharomyces cerevisiae; with Candida albicans; in experiment [1]; in the experiment on Bacillus cereus; in the experiment with Enterococcus faecalis) was inactive. In addition, the result in the experiment on Staphylococcus aureus and with Pseudomonas aeruginosa was inactive.
As to `Cc1ccc(Cc2nn(Cc3n[nH]c(=O)n3Cc3ccccc3)c(=O)n2CCc2c[nH]c3ccccc23)cc1`, the outcome in the experiment on Candida tropicalis, with Saccharomyces cerevisiae, in the experiment on Candida albicans, in the experiment on Enterococcus faecalis and with Staphylococcus aureus was inactive. In addition, the “inhibition zone (IZ)” value was found to be 10 mm in experiment [1], 7 mm with Bacillus cereus and 6 mm in the experiment with Pseudomonas aeruginosa.
`Cc1ccc(Cc2nn(CC(=O)NNC(=S)Nc3ccccc3)c(=O)n2CCc2c[nH]c3ccccc23)cc1`: the outcome (in the experiment with Candida tropicalis; in the experiment with Saccharomyces cerevisiae; in the experiment with Candida albicans; in experiment [1]; in the experiment with Bacillus cereus; in the experiment with Enterococcus faecalis) was inactive. Further, the result in the experiment with Staphylococcus aureus and with Pseudomonas aeruginosa was inactive.
For `O=C(Cn1nc(Cc2ccc(Cl)cc2)n(CCc2c[nH]c3ccccc23)c1=O)NNC(=O)NCc1ccccc1`, the result (in the experiment with Candida tropicalis; in the experiment with Saccharomyces cerevisiae; in the experiment with Candida albicans; in experiment [1]; in the experiment with Bacillus cereus; with Enterococcus faecalis) was inactive. The result in the experiment on Staphylococcus aureus and in the experiment on Pseudomonas aeruginosa was inactive.
With `COc1ccc(/C=N/n2c(S)nnc2Cn2nc(Cc3ccc(C)cc3)n(CCc3c[nH]c4ccccc34)c2=O)cc1`, the outcome in the experiment with Candida tropicalis, with Saccharomyces cerevisiae, in the experiment with Candida albicans and in the experiment on Enterococcus faecalis was inactive. Moreover, the “inhibition zone (IZ)” value in experiment [1] was 6 mm; with Bacillus cereus, 12 mm; in the experiment on Staphylococcus aureus, 11 mm; in the experiment with Pseudomonas aeruginosa it was 12 mm.
Take `CN[C@@H]1[C@H](O[C@H]2[C@H](O[C@H]3[C@H](O)[C@@H](O)[C@H](N=C(N)N)[C@@H](O)[C@@H]3N=C(N)N)O[C@@H](C)[C@]2(O)C=O)O[C@@H](CO)[C@H](O)[C@H]1O` [STREPTOMYCIN]: the “inhibition zone (IZ)” value in experiment [1] amounted to 35 mm.
With `O=c1[nH]nc(Cn2nc(Cc3ccc(Cl)cc3)n(CCc3c[nH]c4ccccc34)c2=O)n1Cc1ccccc1`, the result in the experiment with Candida tropicalis, with Saccharomyces cerevisiae, with Candida albicans, in the experiment on Enterococcus faecalis and in the experiment with Staphylococcus aureus was inactive. In addition, the “inhibition zone (IZ)” value was found to be 10 mm in experiment [1], 12 mm with Bacillus cereus and 10 mm in the experiment with Pseudomonas aeruginosa.
With `O=C(Cn1nc(Cc2ccc(Cl)cc2)n(CCc2c[nH]c3ccccc23)c1=O)NNS(=O)(=O)c1ccc(Br)cc1`, the outcome in the experiment on Candida tropicalis, with Saccharomyces cerevisiae, with Candida albicans and in the experiment on Enterococcus faecalis was inactive. Besides, the “inhibition zone (IZ)” value in experiment [1] is given as 9 mm; in the experiment on Bacillus cereus, 12 mm; with Staphylococcus aureus, 8 mm; with Pseudomonas aeruginosa, 12 mm.
Regarding `O=C(Cn1nc(Cc2ccc(Cl)cc2)n(CCc2c[nH]c3ccccc23)c1=O)N/N=C/Cc1ccccc1`, the outcome (in the experiment on Candida tropicalis; with Saccharomyces cerevisiae; with Candida albicans; in experiment [1]; in the experiment on Bacillus cereus; in the experiment on Enterococcus faecalis) was inactive. In addition, the result with Staphylococcus aureus and in the experiment on Pseudomonas aeruginosa was inactive.
For `Cc1ccc(Cc2nn(CC(=O)NNS(=O)(=O)c3ccc(Cl)cc3)c(=O)n2CCc2c[nH]c3ccccc23)cc1`, the outcome in the experiment on Candida tropicalis, in the experiment on Saccharomyces cerevisiae, with Candida albicans and in the experiment on Enterococcus faecalis was inactive. For the same compound, the “inhibition zone (IZ)” value stood at 9 mm in experiment [1], 10 mm with Bacillus cereus, 7 mm in the experiment with Staphylococcus aureus and 10 mm with Pseudomonas aeruginosa.
Regarding `O=C(Cn1nc(Cc2ccc(Cl)cc2)n(CCc2c[nH]c3ccccc23)c1=O)NNS(=O)(=O)c1ccc(Cl)cc1`, the outcome with Candida tropicalis, with Saccharomyces cerevisiae and in the experiment with Candida albicans was inactive. In addition, the “inhibition zone (IZ)” value came to 14 mm in experiment [1], 12 mm in the experiment on Bacillus cereus, 11 mm with Staphylococcus aureus and 12 mm in the experiment with Pseudomonas aeruginosa.
Regarding `O=c1n(Cc2nnc(S)o2)nc(Cc2ccc(Cl)cc2)n1CCc1c[nH]c2ccccc12`, the result (in the experiment with Candida tropicalis; in the experiment with Saccharomyces cerevisiae; in the experiment on Candida albicans; in experiment [1]; in the experiment on Pseudomonas aeruginosa) was inactive. Further, the figures for the “inhibition zone (IZ)” value in the experiment with Bacillus cereus, in the experiment with Enterococcus faecalis and in the experiment on Staphylococcus aureus were 6 mm, 10 mm and 8 mm, respectively.
For the compound `Nn1c(S)nnc1Cn1nc(Cc2ccc(Cl)cc2)n(CCc2c[nH]c3ccccc23)c1=O`, the outcome with Candida tropicalis, with Saccharomyces cerevisiae, in the experiment with Candida albicans, in the experiment with Enterococcus faecalis, in the experiment on Staphylococcus aureus and with Pseudomonas aeruginosa was inactive. Further, the “inhibition zone (IZ)” value (in experiment [1]; in the experiment on Bacillus cereus) was 7 mm throughout.
Take `Cc1ccc(Cc2nn(CC(=O)NNS(=O)(=O)c3ccc(Br)cc3)c(=O)n2CCc2c[nH]c3ccccc23)cc1`: the result in the experiment on Candida tropicalis, in the experiment with Saccharomyces cerevisiae, in the experiment with Candida albicans, in the experiment on Enterococcus faecalis and with Staphylococcus aureus was inactive. In addition, the “inhibition zone (IZ)” value worked out at 7 mm in experiment [1], 8 mm in the experiment with Bacillus cereus and 10 mm in the experiment on Pseudomonas aeruginosa.

These data come from ChEMBL document CHEMBL3045946, “Synthesis and biological activity studies of new hybrid molecules containing tryptamine moiety” (2012).
